Results taken from US11578130B2, “Regulatable chimeric antigen receptor” (Novartis AG, priority 2013, dated 2023).
Read-outs that look alike come from different tables or passages of the source.

Key:
[1] = tested on: PD-1-positive CD4, CD8 and PD-1-negative CD4 T cells; test: FACS analysis of PBMC for PD-1-positive and PD-1-negative T cells after RAD001 treatment; type: in vivo, human; conditions: adjusted for differences in baseline PD-1 expression; for decrease in PD-1-positive CD8 T cells: pooled RAD001 cohort compared to placebo cohort
[2] = tested on: influenza vaccine strains; test: Clinical trial: serologic response to 2012 seasonal influenza vaccine, primary endpoint across the 3 vaccine strains (HI GMT ratio); type: in vivo, human; conditions: for primary endpoint of the study (HI GMT ratio versus placebo): ITT population
[3] = tested on: A/H1N1/California/07/2009 influenza; test: Serum anti-influenza IgG and IgM levels before and 4 weeks post influenza vaccination; type: in vivo, human; conditions: RAD001 versus placebo cohorts, Kruskal-Wallis rank sum test
Experimental: FIGS. 30A and 30B are graphic representations of IgG and IgM levels before and after influenza vaccination. Levels of anti-A/H1N1/California/07/2009 influenza IgG and IgM were measured in serum obtained from subjects before and 4 weeks post influenza vaccination.

[4] = tested on: Jurkat cells with NFAT-LUC reporter (JNL); test: Activation of CD19 RCAR with extracellular FKBP/FRB switch (half and full switches) by RAD001, NFAT luciferase; type: cell-based; conditions: extracellular half switch 1; 5 nM and 50 nM
Experimental: The RCAR constructs were expressed in a Jurkat reporter cell line. Jurkat cells with NFAT-LUC reporter (JNL) were grown to the density of 0.5×10^6/ml in Jurkat cell growth media with puromycin at 0.5 μg/ml. For each transfection 2.5×10^6 cells were spin down at 100 g for 10 minutes. Two μg of DNA per RCAR construct were used per transfection. Amaxa Nucleofector solution V and supplement I was mixed and 100 μl was added into the tube with DNA construct. The mixture was then added to the cells and transferred to the electroporation cuvette. Electroporation was done under setting X-001 using Amaxa Nucleofector II Device. 0.5 ml of growth media was added immediately after electroporation and the mixture were transferred into 2 ml growth media in one well of the 6-well plate.
After one hour, RAD001 compound was applied at various concentrations: 0 nM, 0.01 nM, 0.03 nM, 0.1 nM, 0.3 nM, 1 nM, 5 nM, and 50 nM. Tissue culture plate was coated with 5 μg/ml of anti anti-CD19 antibody or isotype control for 2 hrs, blocked with the blocking buffer (DPBS with 5% serum) for 1 hour. The transfected cells with or without Rad001 were resuspended and added to the target plate with 100 μl per well and incubated for 18 hrs. Luciferase One Glo reagent 100 μl was added per well. The samples were incubated for 5 min at 37° C. and then luminescence was measured using Envision plate reader.

[5] = Clinical trial in elderly volunteers: adverse events, safety and tolerability; type: in vivo, human; conditions: for Blood cholesterol increased, treatment-related AE / Conjunctivitis, treatment-related AE / Diarrhea, treatment-related AE / Dry mouth, treatment-related AE / Dyspepsia, treatment-related AE / Erythema, treatment-related AE / Fatigue, treatment-related AE / Headache, treatment-related AE / Insomnia, treatment-related AE / Limb discomfort, treatment-related AE / Low density lipoprotein increased, treatment-related AE / Mouth ulceration, treatment-related AE / Mucosal inflammation, treatment-related AE / Neutropenia, treatment-related AE / Oral pain, treatment-related AE / Paresthesia oral, treatment-related AE / Patients with AE(s), treatment-related / Pruritus, treatment-related AE / Stomatitis, treatment-related AE / Thrombocytopenia, treatment-related AE / Tongue ulceration, treatment-related AE / Total AE(s), treatment-related / Urinary tract infection, treatment-related AE: N = 53
[6] = Clinical trial: RAD001 trough levels in blood; type: in vivo, human
[7] = cited from earlier work

Compound: CO[C@H]1C[C@@H]2CC[C@@H](C)[C@@](O)(O2)C(=O)C(=O)N2CCCC[C@H]2C(=O)O[C@H]([C@H](C)C[C@@H]2CC[C@@H](OCCO)[C@H](OC)C2)CC(=O)[C@H](C)/C=C(\C)[C@@H](O)[C@@H](OC)C(=O)[C@H](C)C[C@H](C)/C=C/C=C/C=C/1C [RAD001, (1R,9S,12S,15R,16E,18R,19R,21R,23S,24E,26E,28E,30S,32S,35R)-1,18-dihydroxy-12-{(1R)-2-[(1S,3R,4R)-4-(2-hydroxyethoxy)-3-methoxycyclohexyl]-1-methylethyl}-19,30-dimethoxy-15,17,21,23,29,35-hexamethyl-11,36-dioxa-4-aza-tricyclo[30.3.1.04,9]hexatriaconta-16,24,26,28-tetraene-2,3,10,14,20-pentaone]
- decrease in PD-1-positive CD8 T cells ([1]; week 6): 37.4%
- decrease in PD-1+ CD4 T cells ([1]; week 6, pooled RAD cohort compared to placebo cohort): 30.2%
- decrease in PD-1-positive CD8 T cells ([1]; week 12): 41.4%
- decrease in PD-1-positive CD4 T cells ([1]; week 12, pooled RAD cohort compared to placebo cohort): 32.7%
- primary endpoint of the study (HI GMT ratio versus placebo) ([2]; RAD001 0.5 mg daily or 5 mg weekly): met the GMT primary endpoint
- primary endpoint of the study (HI GMT ratio versus placebo) ([2]; RAD001 20 mg weekly): but not higher dose (20 mg weekly) cohort met the primary endpoint
- increase in influenza titers in subgroup ([2]; human, in vivo): greater RAD001-associated increase in titers than did the ITT population
- change from baseline to 4 weeks post vaccination in anti-H1N1 influenza IgG levels [3]: No significant difference
- change from baseline to 4 weeks post vaccination in anti-H1N1 influenza IgM levels [3]: No significant difference
- NFAT activity at the higher dosages of RAD001 [4]: no inhibition of activity was observed
- Blood cholesterol increased, treatment-related AE ([5]; RAD001 0.5 mg daily): 2 (3.8%) n (%)
- Conjunctivitis, treatment-related AE ([5]; RAD001 0.5 mg daily): 0 n (%)
- Diarrhea, treatment-related AE ([5]; RAD001 0.5 mg daily): 1 (1.9%) n (%)
- Dry mouth, treatment-related AE ([5]; RAD001 0.5 mg daily): 0 n (%)
- Dyspepsia, treatment-related AE ([5]; RAD001 0.5 mg daily): 0 n (%)
- Erythema, treatment-related AE ([5]; RAD001 0.5 mg daily): 0 n (%)
- Fatigue, treatment-related AE ([5]; RAD001 0.5 mg daily): 0 n (%)
- Headache, treatment-related AE ([5]; RAD001 0.5 mg daily): 0 n (%)
- Insomnia, treatment-related AE ([5]; RAD001 0.5 mg daily): 1 (1.9%) n (%)
- Limb discomfort, treatment-related AE ([5]; RAD001 0.5 mg daily): 0 n (%)
- Low density lipoprotein increased, treatment-related AE ([5]; RAD001 0.5 mg daily): 2 (3.8%) n (%)
- Mouth ulceration, treatment-related AE ([5]; RAD001 0.5 mg daily): 6 (11.3%) n (%)
- Mucosal inflammation, treatment-related AE ([5]; RAD001 0.5 mg daily): 0 n (%)
- Neutropenia, treatment-related AE ([5]; RAD001 0.5 mg daily): 0 n (%)
- Oral pain, treatment-related AE ([5]; RAD001 0.5 mg daily): 0 n (%)
- Paresthesia oral, treatment-related AE ([5]; RAD001 0.5 mg daily): 2 (3.8%) n (%)
- Patients with AE(s), treatment-related ([5]; RAD001 0.5 mg daily): 22 (41.5%) n (%)
- Pruritus, treatment-related AE ([5]; RAD001 0.5 mg daily): 0 n (%)
- Stomatitis, treatment-related AE ([5]; RAD001 0.5 mg daily): 0 n (%)
- Thrombocytopenia, treatment-related AE ([5]; RAD001 0.5 mg daily): 0 n (%)
- Tongue ulceration, treatment-related AE ([5]; RAD001 0.5 mg daily): 3 (5.7%) n (%)
- Total AE(s), treatment-related ([5]; RAD001 0.5 mg daily): 35 n (%)
- Urinary tract infection, treatment-related AE ([5]; RAD001 0.5 mg daily): 0 n (%)
- Blood cholesterol increased, treatment-related AE ([5]; RAD001 5 mg weekly): 2 (3.8%) n (%)
- Conjunctivitis, treatment-related AE ([5]; RAD001 5 mg weekly): 2 (3.8%) n (%)
- Diarrhea, treatment-related AE ([5]; RAD001 5 mg weekly): 4 (7.5%) n (%)
- Dry mouth, treatment-related AE ([5]; RAD001 5 mg weekly): 0 n (%)
- Dyspepsia, treatment-related AE ([5]; RAD001 5 mg weekly): 3 (5.7%) n (%)
- Erythema, treatment-related AE ([5]; RAD001 5 mg weekly): 2 (3.8%) n (%)
- Fatigue, treatment-related AE ([5]; RAD001 5 mg weekly): 2 (3.8%) n (%)
- Headache, treatment-related AE ([5]; RAD001 5 mg weekly): 2 (3.8%) n (%)
- Insomnia, treatment-related AE ([5]; RAD001 5 mg weekly): 2 (3.8%) n (%)
- Limb discomfort, treatment-related AE ([5]; RAD001 5 mg weekly): 2 (3.8%) n (%)
- Low density lipoprotein increased, treatment-related AE ([5]; RAD001 5 mg weekly): 1 (1.9%) n (%)
- Mouth ulceration, treatment-related AE ([5]; RAD001 5 mg weekly): 2 (3.8%) n (%)
- Mucosal inflammation, treatment-related AE ([5]; RAD001 5 mg weekly): 0 n (%)
- Neutropenia, treatment-related AE ([5]; RAD001 5 mg weekly): 0 n (%)
- Oral pain, treatment-related AE ([5]; RAD001 5 mg weekly): 2 (3.8%) n (%)
- Paresthesia oral, treatment-related AE ([5]; RAD001 5 mg weekly): 0 n (%)
- Patients with AE(s), treatment-related ([5]; RAD001 5 mg weekly): 20 (37.7%) n (%)
- Pruritus, treatment-related AE ([5]; RAD001 5 mg weekly): 2 (3.8%) n (%)
- Stomatitis, treatment-related AE ([5]; RAD001 5 mg weekly): 0 n (%)
- Thrombocytopenia, treatment-related AE ([5]; RAD001 5 mg weekly): 0 n (%)
- Tongue ulceration, treatment-related AE ([5]; RAD001 5 mg weekly): 1 (1.9%) n (%)
- Total AE(s), treatment-related ([5]; RAD001 5 mg weekly): 46 n (%)
- Urinary tract infection, treatment-related AE ([5]; RAD001 5 mg weekly): 0 n (%)
- Blood cholesterol increased, treatment-related AE ([5]; RAD001 20 mg weekly): 2 (3.8%) n (%)
- Conjunctivitis, treatment-related AE ([5]; RAD001 20 mg weekly): 0 n (%)
- Diarrhea, treatment-related AE ([5]; RAD001 20 mg weekly): 1 (1.9%) n (%)
- Dry mouth, treatment-related AE ([5]; RAD001 20 mg weekly): 2 (3.8%) n (%)
- Dyspepsia, treatment-related AE ([5]; RAD001 20 mg weekly): 2 (3.8%) n (%)
- Erythema, treatment-related AE ([5]; RAD001 20 mg weekly): 0 n (%)
- Fatigue, treatment-related AE ([5]; RAD001 20 mg weekly): 4 (7.5%) n (%)
- Headache, treatment-related AE ([5]; RAD001 20 mg weekly): 9 (17.0%) n (%)
- Insomnia, treatment-related AE ([5]; RAD001 20 mg weekly): 1 (1.9%) n (%)
- Limb discomfort, treatment-related AE ([5]; RAD001 20 mg weekly): 0 n (%)
- Low density lipoprotein increased, treatment-related AE ([5]; RAD001 20 mg weekly): 2 (3.8%) n (%)
- Mouth ulceration, treatment-related AE ([5]; RAD001 20 mg weekly): 9 (17.0%) n (%)
- Mucosal inflammation, treatment-related AE ([5]; RAD001 20 mg weekly): 2 (3.8%) n (%)
- Neutropenia, treatment-related AE ([5]; RAD001 20 mg weekly): 3 (5.7%) n (%)
- Oral pain, treatment-related AE ([5]; RAD001 20 mg weekly): 1 (1.9%) n (%)
- Paresthesia oral, treatment-related AE ([5]; RAD001 20 mg weekly): 0 n (%)
- Patients with AE(s), treatment-related ([5]; RAD001 20 mg weekly): 27 (50.9%) n (%)
- Pruritus, treatment-related AE ([5]; RAD001 20 mg weekly): 1 (1.9%) n (%)
- Stomatitis, treatment-related AE ([5]; RAD001 20 mg weekly): 2 (3.8%) n (%)
- Thrombocytopenia, treatment-related AE ([5]; RAD001 20 mg weekly): 2 (3.8%) n (%)
- Tongue ulceration, treatment-related AE ([5]; RAD001 20 mg weekly): 0 n (%)
- Total AE(s), treatment-related ([5]; RAD001 20 mg weekly): 109 n (%)
- Urinary tract infection, treatment-related AE ([5]; RAD001 20 mg weekly): 2 (3.8%) n (%)
- tolerability ([5]; elderly volunteers, 6 weeks, particularly 0.5 mg daily and 5 mg weekly dosing regimens): well tolerated
- number of severe AEs assessed as related to RAD001 (mouth ulcers) ([5]; subject treated with 20 mg weekly RAD001): one
- average RAD001 trough level ([6]; 5 mg weekly, 0.3 ng/ml is the lower limit of quantification): below detection limits
- trough level of study regimens relative to approved regimens, fold lower ([6]; dosing regimens used in the immunization study): 3-20 fold
- trough level of RAD001 ([7]; 10 mg daily oncology dosing regimen): approximately 20 ng/ml
- trough level of RAD001 ([7]; 0.75-1.5 mg bid transplant dosing regimen): approximately 3 ng/ml
